Assay results reported in PubChem BioAssay AID1963974 (Molecular Pharmacology Branch, DTP, NCI, 2024).

Tested on: 648629-189-R-J1-PDC spheroids with HUVEC/MSC, viability
Experiment: Anticancer human tumor 648629-189-R-J1-PDC patient-derived bladder carcinoma cell line growth inhibition [PI3K]
Conditions: for IC50: curve of first compound; for viability, T/C: stronger effect = lower value
From the text: Combinatorial screen of targeted agents with the PI3K inhibitors inavolisib, alpelisib, duvelisib, and copanlisib in multi-cell type tumor spheroids
A high-throughput screen of multi-cell type tumor spheroids was designed to identify active combinations of targeted small molecules and PI3K pathway inhibitors. Complex spheroids include a stromal component modeled by human endothelial cells (HUVEC) and fibroblasts modeled by human mesenchymal stem cells (MSCs). The concentration ranges selected for each drug and investigational agent were based upon clinically achievable concentrations if the clinical Cmax of the agent was known.
Compounds. The drugs and investigational agents: inavolisib (NSC800729), alpelisib (NSC765974), duvelisib (NSC772469), copanlisib (NSC816437), ipatasertib (NSC767898), afuresertib (NSC778305), talazoparib (NSC767125), sapanisertib (NSC764658), selumetinib (NSC741078), tovorafenib (DAY101, NSC766906), vemurafenib (NSC761431), ravoxertinib (NSC781343), sotorasib (NSC818433), MRTX1133 (NSC 836407), abemaciclib (NSC 768073), palbociclib (NSC758247), venetoclax (NSC 766270), SY5609 (NSC837396), enzalutamide (NSC755605), and darolutamide (NSC825331), were obtained from the National Cancer Institute (NCI) Developmental Therapeutics Program Chemical Repository. The FDA-approved anticancer drug set is available from the NCI Developmental Therapeutics Program. […] The stock solutions were prepared in dimethyl sulfoxide (DMSO, Sigma-Aldrich, St. Louis, MO, cat. D2650) at 800-fold the tested concentration and stored at -70 degrees C prior to their use. All drugs and investigational agents were tested over a range starting from a high concentration at or near the clinical Cmax and decreasing in half-log increments. If the clinical Cmax for an agent had not been determined, the highest concentration tested was 10 microM.
Cell Culture. All cells were maintained in an incubator at 37 degrees C and 5% CO2 with 95% humidity. The PDC lines were cultured according to standard operating procedures established by the NCI PDMR (https://pdmr.cancer.gov/sops/default.htm). All PDCs were thawed and cultured in Matrigel-coated flasks prepared with a working solution of 1X Ham's F-12 nutrient mix, without supplementation (Invitrogen, Waltham, MA, cat. 11765054), 100 U/mL penicillin-streptomycin (Invitrogen, cat. 15140122), and 2.5% Matrigel (Corning Inc., Corning, NY, cat. 354248) for the first three passages. The 354836-022-R-J1-PDC, 475296-252-R-J1-PDC, and 997726-040-R-J2-PDC lines were cultured in 6A media, which includes advanced DMEM/F-12 (Thermo Fisher Scientific, cat. 12634028), 10 mM HEPES (Thermo Fisher Scientific, cat. 15630080), 1X GlutaMAX supplement (Thermo Fisher Scientific, cat. 35050061), 0.1 mg/mL primocin (InvivoGen, San Diego, CA, cat. ant-pm-2), 10% defined fetal bovine serum, heat inactivated (HyClone Laboratories Inc., Logan, UT, cat. SH30070.03HI), 50% L-WRN conditioned media (ATCC, cat. CRL-3276), 1.25 mM N-Acetyl-L-cysteine (Sigma-Aldrich, cat. A9165), 10 mM nicotinamide (Sigma-Aldrich, cat. N0636), 1X B-27 supplement (Thermo Fisher Scientific, cat. 17504044), 1X N-2 supplement (Thermo Fisher Scientific, cat. 17502048), and 10 microM Y-27632 dihydrochloride (Tocris Bioscience, Bristol, United Kingdom, cat. 1254). The 624824-186-R-J2-PDC line was cultured in 6C/Colon 1B media, which includes all 6A media components plus 50 ng/mL human EGF recombinant protein (Thermo Fisher Scientific, cat. PHG0311). […]

[1] = second compound 0.00316 µM, first compound 0.000316 µM
[2] = second compound 0.00316 µM, first compound 0.001 µM
[3] = second compound 0.00316 µM, first compound 0.00316 µM
[4] = second compound 0.00316 µM, first compound 0.01 µM
[5] = second compound 0.00316 µM, first compound 0.0316 µM
[6] = second compound 0.00316 µM, first compound 0.1 µM
[7] = second compound 0.01 µM, first compound 0.000316 µM
[8] = second compound 0.01 µM, first compound 0.001 µM
[9] = second compound 0.01 µM, first compound 0.00316 µM
[10] = second compound 0.01 µM, first compound 0.01 µM
[11] = second compound 0.01 µM, first compound 0.0316 µM
[12] = second compound 0.01 µM, first compound 0.1 µM
[13] = second compound 0.0316 µM, first compound 0.000316 µM
[14] = second compound 0.0316 µM, first compound 0.001 µM
[15] = second compound 0.0316 µM, first compound 0.00316 µM
[16] = second compound 0.0316 µM, first compound 0.01 µM
[17] = second compound 0.0316 µM, first compound 0.0316 µM
[18] = second compound 0.0316 µM, first compound 0.1 µM
[19] = second compound 0.1 µM, first compound 0.000316 µM
[20] = second compound 0.1 µM, first compound 0.001 µM
[21] = second compound 0.1 µM, first compound 0.00316 µM
[22] = second compound 0.1 µM, first compound 0.01 µM
[23] = second compound 0.1 µM, first compound 0.0316 µM
[24] = second compound 0.1 µM, first compound 0.1 µM
[25] = second compound 0.316 µM, first compound 0.000316 µM
[26] = second compound 0.316 µM, first compound 0.001 µM
[27] = second compound 0.316 µM, first compound 0.00316 µM
[28] = second compound 0.316 µM, first compound 0.01 µM
[29] = second compound 0.316 µM, first compound 0.0316 µM
[30] = second compound 0.316 µM, first compound 0.1 µM
[31] = second compound 1 µM, first compound 0.000316 µM
[32] = second compound 1 µM, first compound 0.001 µM
[33] = second compound 1 µM, first compound 0.00316 µM
[34] = second compound 1 µM, first compound 0.01 µM
[35] = second compound 1 µM, first compound 0.0316 µM
[36] = second compound 1 µM, first compound 0.1 µM
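Also: spheroids exposed to agents for seven days before reading.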
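For viability, T/C in this document: percent of vehicle control luminescence where 100% = DMSO treated spheroids.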

CC(=O)c1c(C)c2cnc(Nc3ccc(N4CCNCC4)cn3)nc2n(C2CCCC2)c1=O + CC(Nc1ccc2c(c1)OCCn1cc(N3C(=O)OCC3C(F)F)nc1-2)C(N)=O showed an IC50 (second compound 0.00316 µM) of over 100 nM, an IC50 (second compound 0.01 µM) of over 100 nM and an IC50 (second compound 0.0316 µM) of over 100 nM. The IC50 (second compound 0.1 µM) was over 100 nM, the IC50 (second compound 0.316 µM) was over 100 nM and the IC50 (second compound 1 µM) was over 100 nM. For the same molecule, the viability, T/C [1] was 102%, the viability, T/C [2] was 103% and the viability, T/C [3] was 105%. For the same molecule, the viability, T/C [4] was 95.5%, the viability, T/C [5] was 108% and the viability, T/C [6] was 112%. For the same molecule, the viability, T/C [7] was 101%, the viability, T/C [8] was 103% and the viability, T/C [9] was 88%. It also gave a viability, T/C [10] of 99.4%, a viability, T/C [11] of 98.9% and a viability, T/C [12] of 104%. It also gave a viability, T/C [13] of 88.5%, a viability, T/C [14] of 105% and a viability, T/C [15] of 95.9%. It also gave a viability, T/C [16] of 99.9%, a viability, T/C [17] of 97.4% and a viability, T/C [18] of 96.4%. The viability, T/C [19] was 104%, the viability, T/C [20] was 92.1% and the viability, T/C [21] was 82.8%. It also gave a viability, T/C [22] of 88.3%, a viability, T/C [23] of 96.2% and a viability, T/C [24] of 102%. The viability, T/C [25] was 81.5%, the viability, T/C [26] was 87.2% and the viability, T/C [27] was 85%. The viability, T/C [28] was 82.4%, the viability, T/C [29] was 76.4% and the viability, T/C [30] was 94.5%. It also gave a viability, T/C [31] of 67%, a viability, T/C [32] of 65.7% and a viability, T/C [33] of 78.4%. It also gave a viability, T/C [34] of 80%, a viability, T/C [35] of 63.4% and a viability, T/C [36] of 71.2%.

CC(C)n1nc(-c2ccc3oc(N)nc3c2)c2c(N)ncnc21 + CC(Nc1ccc2c(c1)OCCn1cc(N3C(=O)OCC3C(F)F)nc1-2)C(N)=O was tested, and the IC50 (second compound 0.00316 µM) was 61.3 nM, the IC50 (second compound 0.01 µM) was 59.5 nM and the IC50 (second compound 0.0316 µM) was 59 nM. For the same molecule, the IC50 (second compound 0.1 µM) was 53.9 nM, the IC50 (second compound 0.316 µM) was 31.8 nM and the IC50 (second compound 1 µM) was 12.5 nM. For the same molecule, the viability, T/C [1] was 119%, the viability, T/C [2] was 100% and the viability, T/C [3] was 94.7%. It also gave a viability, T/C [4] of 90%, a viability, T/C [5] of 68.8% and a viability, T/C [6] of 36.2%. The viability, T/C [7] was 102%, the viability, T/C [8] was 92.2% and the viability, T/C [9] was 96.3%. The viability, T/C [10] was 95.5%, the viability, T/C [11] was 74.3% and the viability, T/C [12] was 30%. It also gave a viability, T/C [13] of 119%, a viability, T/C [14] of 103% and a viability, T/C [15] of 98.3%. It also gave a viability, T/C [16] of 80%, a viability, T/C [17] of 75.9% and a viability, T/C [18] of 32.6%. For the same molecule, the viability, T/C [19] was 89.1%, the viability, T/C [20] was 94.9% and the viability, T/C [21] was 80.3%. It also gave a viability, T/C [22] of 82.9%, a viability, T/C [23] of 72.5% and a viability, T/C [24] of 25.3%. For the same molecule, the viability, T/C [25] was 81.6%, the viability, T/C [26] was 73.3% and the viability, T/C [27] was 78.6%. It also gave a viability, T/C [28] of 74.6%, a viability, T/C [29] of 50.2% and a viability, T/C [30] of 24.8%. For the same molecule, the viability, T/C [31] was 65.6%, the viability, T/C [32] was 63.1% and the viability, T/C [33] was 67.2%. For the same molecule, the viability, T/C [34] was 48%, the viability, T/C [35] was 39.8% and the viability, T/C [36] was 17.9%.

CCCS(=O)(=O)Nc1ccc(F)c(C(=O)c2c[nH]c3ncc(-c4ccc(Cl)cc4)cc23)c1F + CC(Nc1ccc2c(c1)OCCn1cc(N3C(=O)OCC3C(F)F)nc1-2)C(N)=O gave an IC50 (second compound 0.00316 µM) of 5190 nM, an IC50 (second compound 0.01 µM) of 5510 nM and an IC50 (second compound 0.0316 µM) of 4720 nM. It also gave an IC50 (second compound 0.1 µM) of 4820 nM, an IC50 (second compound 0.316 µM) of 4480 nM and an IC50 (second compound 1 µM) of 3550 nM. It also gave a viability, T/C [5] of 108%, a viability, T/C [6] of 105% and a viability, T/C (second compound 0.00316 µM, first compound 0.316 µM) of 105%. It also gave a viability, T/C (second compound 0.00316 µM, first compound 1 µM) of 106%, a viability, T/C (second compound 0.00316 µM, first compound 3.16 µM) of 87.5% and a viability, T/C (second compound 0.00316 µM, first compound 10 µM) of 0.36%. It also gave a viability, T/C [11] of 112%, a viability, T/C [12] of 91% and a viability, T/C (second compound 0.01 µM, first compound 0.316 µM) of 109%. The viability, T/C (second compound 0.01 µM, first compound 1 µM) was 129%, the viability, T/C (second compound 0.01 µM, first compound 3.16 µM) was 96.5% and the viability, T/C (second compound 0.01 µM, first compound 10 µM) was 0.28%. For the same molecule, the viability, T/C [17] was 104%, the viability, T/C [18] was 111% and the viability, T/C (second compound 0.0316 µM, first compound 0.316 µM) was 93.3%. For the same molecule, the viability, T/C (second compound 0.0316 µM, first compound 1 µM) was 112%, the viability, T/C (second compound 0.0316 µM, first compound 3.16 µM) was 76.5% and the viability, T/C (second compound 0.0316 µM, first compound 10 µM) was 0.32%. For the same molecule, the viability, T/C [23] was 98.3%, the viability, T/C [24] was 92.3% and the viability, T/C (second compound 0.1 µM, first compound 0.316 µM) was 97.9%. For the same molecule, the viability, T/C (second compound 0.1 µM, first compound 1 µM) was 98.9%, the viability, T/C (second compound 0.1 µM, first compound 3.16 µM) was 77.3% and the viability, T/C (second compound 0.1 µM, first compound 10 µM) was 2.36%. It also gave a viability, T/C [29] of 94.5%, a viability, T/C [30] of 83.4% and a viability, T/C (second compound 0.316 µM, first compound 0.316 µM) of 88.1%. It also gave a viability, T/C (second compound 0.316 µM, first compound 1 µM) of 84.5%, a viability, T/C (second compound 0.316 µM, first compound 3.16 µM) of 71.9% and a viability, T/C (second compound 0.316 µM, first compound 10 µM) of 0.44%. The viability, T/C [35] was 63.8%, the viability, T/C [36] was 60.6% and the viability, T/C (second compound 1 µM, first compound 0.316 µM) was 65.8%. For the same molecule, the viability, T/C (second compound 1 µM, first compound 1 µM) was 64.9%, the viability, T/C (second compound 1 µM, first compound 3.16 µM) was 55.2% and the viability, T/C (second compound 1 µM, first compound 10 µM) was 0.54%.
